# Laboratory results from patent US8557741B2, “3-aminocarbonyl-substituted benzoylcyclohexanediones and their use as herbicides” (Bayer CropScience AG, priority 2010, dated 2013).
# System: Echinochloa crus galli
# Assay: Pre-emergence herbicidal action against harmful plants
# Assay type: in vivo
# Conditions: Echinochloa, 504 h, dosage 320 g/ha, visual assessment after 3 weeks (Table A), read-out: Herbicidal action against ECHCG
# Description: (§1) The abbreviations used in the tables below denote: • ABUTH Abutilon theophrasti • AMARE Amaranthus retroflexus • ECHCG Echinochloa crus galli • PHBPU Phartoitis purpureum • STEME Stellaria media • ALOMY Alopecurus myosuroides • AVEFA Avena fatua • MATIN Matricaria inodora • POLCO Fallopia convolvulus • VERPE Veronica persica 1. Pre-emergence Herbicidal Action Against Harmful Plants Seeds of monocotyledonous and dicotyledonous weed plants and crop plants are placed in wood-fibre pots in sandy loam and covered with soil. The compounds according to the invention and the compounds known from the prior art, formulated in the form of wettable powders (WP) or as emulsion concentrates (EC), are then applied as aqueous suspension or emulsion at a water application rate of 600 to 800 I/ha (converted) with the addition of 0.2% of wetting agent to the surface of the covering soil. After the treatment, the pots are placed in a greenhouse and kept under good growth conditions for the test plants. The visual assessment of the damage to the test plants is carried out after a trial period of 3 weeks by comparison with untreated controls (herbicidal activity in percent (%): 100% activity=the plants have died, 0% activity=like control plants, —=not tested). The results of comparative table A show the compounds according to the invention have a higher herbicidal activity than the compounds of the greatest structural similarity known from the closest prior art.
row,Structure (SMILES),pest or weed control at 320 g/ha [%]
1,CCN(C)C(=O)COc1c(S(=O)(=O)CC)ccc(C(=O)C2=C(O)CCCC2=O)c1C(F)(F)F [Compound E6],100
2,CCN(CC)C(=O)COc1c(S(C)(=O)=O)ccc(C(=O)C2=C(O)CCCC2=O)c1C(F)(F)F [Compound E2],100
3,CCN(CC)C(=O)COc1c(S(=O)(=O)CC)ccc(C(=O)C2=C(O)CCCC2=O)c1C(F)(F)F [Compound E3],100
4,"CN(C)C(=O)COc1c(S(C)(=O)=O)ccc(C(=O)C2=C(O)CCCC2=O)c1Cl [Compound S4, reference compound]",40

# System: Matricaria inodora
# Assay: as above
# Assay type: in vivo
# Conditions: Tripleurospermum inodorum, 504 h, dosage 320 g/ha, visual assessment after 3 weeks (Table A), read-out: Herbicidal action against MATIN
# Description: as §1
row,Structure (SMILES),pest or weed control at 320 g/ha [%]
1,CCN(C)C(=O)COc1c(S(=O)(=O)CC)ccc(C(=O)C2=C(O)CCCC2=O)c1C(F)(F)F [Compound E6],100
2,CCN(CC)C(=O)COc1c(S(C)(=O)=O)ccc(C(=O)C2=C(O)CCCC2=O)c1C(F)(F)F [Compound E2],100
3,CCN(CC)C(=O)COc1c(S(=O)(=O)CC)ccc(C(=O)C2=C(O)CCCC2=O)c1C(F)(F)F [Compound E3],100
4,"CN(C)C(=O)COc1c(S(C)(=O)=O)ccc(C(=O)C2=C(O)CCCC2=O)c1Cl [Compound S4, reference compound]",80

# System: Abutilon theophrasti
# Assay: as above
# Assay type: in vivo
# Conditions: Abutilon theophrasti, 504 h, dosage 320 g/ha, visual assessment after 3 weeks (Table A), read-out: Herbicidal action against ABUTH
# Description: as §1
row,Structure (SMILES),pest or weed control at 320 g/ha [%]
1,CCN(C)C(=O)COc1c(S(=O)(=O)CC)ccc(C(=O)C2=C(O)CCCC2=O)c1C(F)(F)F [Compound E6],100
2,CCN(CC)C(=O)COc1c(S(C)(=O)=O)ccc(C(=O)C2=C(O)CCCC2=O)c1C(F)(F)F [Compound E2],100
3,CCN(CC)C(=O)COc1c(S(=O)(=O)CC)ccc(C(=O)C2=C(O)CCCC2=O)c1C(F)(F)F [Compound E3],100
4,"CN(C)C(=O)COc1c(S(C)(=O)=O)ccc(C(=O)C2=C(O)CCCC2=O)c1Cl [Compound S4, reference compound]",50

# System: Amaranthus retroflexus
# Assay: as above
# Assay type: in vivo
# Conditions: 504 h, dosage 320 g/ha, visual assessment after 3 weeks (Table A), read-out: Herbicidal action against AMARE
# Description: as §1
row,Structure (SMILES),pest or weed control at 320 g/ha [%]
1,CCN(C)C(=O)COc1c(S(=O)(=O)CC)ccc(C(=O)C2=C(O)CCCC2=O)c1C(F)(F)F [Compound E6],100
2,CCN(CC)C(=O)COc1c(S(C)(=O)=O)ccc(C(=O)C2=C(O)CCCC2=O)c1C(F)(F)F [Compound E2],100
3,CCN(CC)C(=O)COc1c(S(=O)(=O)CC)ccc(C(=O)C2=C(O)CCCC2=O)c1C(F)(F)F [Compound E3],100
4,"CN(C)C(=O)COc1c(S(C)(=O)=O)ccc(C(=O)C2=C(O)CCCC2=O)c1Cl [Compound S4, reference compound]",100

# System: Phartoitis purpureum
# Assay: as above
# Assay type: in vivo
# Conditions: dosage 320 g/ha, visual assessment after 3 weeks (Table A)
# Description: as §1
row,Structure (SMILES),Herbicidal action against PHBPU [%]
1,CCN(CC)C(=O)COc1c(S(C)(=O)=O)ccc(C(=O)C2=C(O)CCCC2=O)c1C(F)(F)F [Compound E2],80
2,CCN(CC)C(=O)COc1c(S(=O)(=O)CC)ccc(C(=O)C2=C(O)CCCC2=O)c1C(F)(F)F [Compound E3],90

# System: Stellaria media
# Assay: as above
# Assay type: in vivo
# Conditions: 504 h, dosage 320 g/ha, visual assessment after 3 weeks (Table A), read-out: Herbicidal action against STEME
# Description: as §1
row,Structure (SMILES),pest or weed control at 320 g/ha [%]
1,CCN(C)C(=O)COc1c(S(=O)(=O)CC)ccc(C(=O)C2=C(O)CCCC2=O)c1C(F)(F)F [Compound E6],100
2,CCN(CC)C(=O)COc1c(S(C)(=O)=O)ccc(C(=O)C2=C(O)CCCC2=O)c1C(F)(F)F [Compound E2],90
3,CCN(CC)C(=O)COc1c(S(=O)(=O)CC)ccc(C(=O)C2=C(O)CCCC2=O)c1C(F)(F)F [Compound E3],100
4,"CN(C)C(=O)COc1c(S(C)(=O)=O)ccc(C(=O)C2=C(O)CCCC2=O)c1Cl [Compound S4, reference compound]",90

# System: Veronica persica
# Assay: as above
# Assay type: in vivo
# Conditions: 504 h, dosage 320 g/ha, visual assessment after 3 weeks (Table A), read-out: Herbicidal action against VERPE
# Description: as §1
row,Structure (SMILES),pest or weed control at 320 g/ha [%]
1,CCN(C)C(=O)COc1c(S(=O)(=O)CC)ccc(C(=O)C2=C(O)CCCC2=O)c1C(F)(F)F [Compound E6],100
2,CCN(CC)C(=O)COc1c(S(C)(=O)=O)ccc(C(=O)C2=C(O)CCCC2=O)c1C(F)(F)F [Compound E2],100
3,CCN(CC)C(=O)COc1c(S(=O)(=O)CC)ccc(C(=O)C2=C(O)CCCC2=O)c1C(F)(F)F [Compound E3],100
4,"CN(C)C(=O)COc1c(S(C)(=O)=O)ccc(C(=O)C2=C(O)CCCC2=O)c1Cl [Compound S4, reference compound]",100

# System: Echinochloa crus galli
# Assay: Post-emergence herbicidal action against harmful plants
# Assay type: in vivo
# Conditions: 504 h, dosage 80 g/ha, visual rating after about 3 weeks (Table D), read-out: Herbicidal action against ECHCG
# Description: (§2) The abbreviations used in the tables below denote: • ABUTH Abutilon theophrasti • AMARE Amaranthus retroflexus • ECHCG Echinochloa crus galli • PHBPU Phartoitis purpureum • STEME Stellaria media • ALOMY Alopecurus myosuroides • AVEFA Avena fatua • MATIN Matricaria inodora • POLCO Fallopia convolvulus • VERPE Veronica persica 1. Pre-emergence Herbicidal Action Against Harmful Plants Seeds of monocotyledonous and dicotyledonous weed and crop plants are placed in sandy loam in wood-fibre pots, covered with soil and cultivated in a greenhouse under good growth conditions. 2 to 3 weeks after sowing, the test plants are treated at the one-leaf stage. The compounds according to the invention, formulated in the form of wettable powders (WP) or as emulsion concentrates (EC), are then sprayed as aqueous suspension or emulsion at a water application rate of 600 to 800 I/ha (converted) with the addition of 0.2% of wetting agent onto the green parts of the plants. After the test plants have been kept in the greenhouse under optimum growth conditions for about 3 weeks, the activity of the preparations is rated visually in comparison to untreated controls (herbicidal activity in percent (%): 100% activity=the plants have died, 0% activity=control plants, —=not tested).
row,Structure (SMILES),pest or weed control at 80 g/ha [%]
1,CCN(C)C(=O)COc1c(S(=O)(=O)CC)ccc(C(=O)C2=C(O)CCCC2=O)c1C(F)(F)F [Compound E6],100
2,CCN(CC)C(=O)COc1c(S(C)(=O)=O)ccc(C(=O)C2=C(O)CCCC2=O)c1C(F)(F)F [Compound E2],90
3,CCN(CC)C(=O)COc1c(S(=O)(=O)CC)ccc(C(=O)C2=C(O)CCCC2=O)c1C(F)(F)F [Compound E3],100

# System: Matricaria inodora
# Assay: as above
# Assay type: in vivo
# Conditions: Tripleurospermum inodorum, 504 h, dosage 80 g/ha, visual rating after about 3 weeks (Table D), read-out: Herbicidal action against MATIN
# Description: as §2
row,Structure (SMILES),pest or weed control at 80 g/ha [%]
1,CCN(C)C(=O)COc1c(S(=O)(=O)CC)ccc(C(=O)C2=C(O)CCCC2=O)c1C(F)(F)F [Compound E6],100
2,CCN(CC)C(=O)COc1c(S(C)(=O)=O)ccc(C(=O)C2=C(O)CCCC2=O)c1C(F)(F)F [Compound E2],100
3,CCN(CC)C(=O)COc1c(S(=O)(=O)CC)ccc(C(=O)C2=C(O)CCCC2=O)c1C(F)(F)F [Compound E3],90
4,"CN(C)C(=O)COc1c(S(C)(=O)=O)ccc(C(=O)C2=C(O)CCCC2=O)c1Cl [Compound S4, reference compound]",70

# System: Fallopia convolvulus
# Assay: as above
# Assay type: in vivo
# Conditions: 504 h, dosage 80 g/ha, visual rating after about 3 weeks (Table D), read-out: Herbicidal action against POLCO
# Description: as §2
row,Structure (SMILES),pest or weed control at 80 g/ha [%]
1,CCN(C)C(=O)COc1c(S(=O)(=O)CC)ccc(C(=O)C2=C(O)CCCC2=O)c1C(F)(F)F [Compound E6],90
2,CCN(CC)C(=O)COc1c(S(=O)(=O)CC)ccc(C(=O)C2=C(O)CCCC2=O)c1C(F)(F)F [Compound E3],90
3,"CN(C)C(=O)COc1c(S(C)(=O)=O)ccc(C(=O)C2=C(O)CCCC2=O)c1Cl [Compound S4, reference compound]",0

# System: Abutilon theophrasti
# Assay: as above
# Assay type: in vivo
# Conditions: 504 h, dosage 80 g/ha, visual rating after about 3 weeks (Table D), read-out: Herbicidal action against ABUTH
# Description: as §2
row,Structure (SMILES),pest or weed control at 80 g/ha [%]
1,CCN(C)C(=O)COc1c(S(=O)(=O)CC)ccc(C(=O)C2=C(O)CCCC2=O)c1C(F)(F)F [Compound E6],100
2,CCN(CC)C(=O)COc1c(S(C)(=O)=O)ccc(C(=O)C2=C(O)CCCC2=O)c1C(F)(F)F [Compound E2],90
3,CCN(CC)C(=O)COc1c(S(=O)(=O)CC)ccc(C(=O)C2=C(O)CCCC2=O)c1C(F)(F)F [Compound E3],100
4,"CN(C)C(=O)COc1c(S(C)(=O)=O)ccc(C(=O)C2=C(O)CCCC2=O)c1Cl [Compound S4, reference compound]",70

# System: Amaranthus retroflexus
# Assay: as above
# Assay type: in vivo
# Conditions: 504 h, dosage 80 g/ha, visual rating after about 3 weeks (Table D), read-out: Herbicidal action against AMARE
# Description: as §2
row,Structure (SMILES),pest or weed control at 80 g/ha [%]
1,CCN(C)C(=O)COc1c(S(=O)(=O)CC)ccc(C(=O)C2=C(O)CCCC2=O)c1C(F)(F)F [Compound E6],90
2,CCN(CC)C(=O)COc1c(S(C)(=O)=O)ccc(C(=O)C2=C(O)CCCC2=O)c1C(F)(F)F [Compound E2],100
3,CCN(CC)C(=O)COc1c(S(=O)(=O)CC)ccc(C(=O)C2=C(O)CCCC2=O)c1C(F)(F)F [Compound E3],100
4,"CN(C)C(=O)COc1c(S(C)(=O)=O)ccc(C(=O)C2=C(O)CCCC2=O)c1Cl [Compound S4, reference compound]",60

# System: Phartoitis purpureum
# Assay: as above
# Assay type: in vivo
# Conditions: 504 h, dosage 80 g/ha, visual rating after about 3 weeks (Table D), read-out: Herbicidal action against PHBPU
# Description: as §2
row,Structure (SMILES),pest or weed control at 80 g/ha [%]
1,CCN(C)C(=O)COc1c(S(=O)(=O)CC)ccc(C(=O)C2=C(O)CCCC2=O)c1C(F)(F)F [Compound E6],100
2,CCN(CC)C(=O)COc1c(S(C)(=O)=O)ccc(C(=O)C2=C(O)CCCC2=O)c1C(F)(F)F [Compound E2],100
3,CCN(CC)C(=O)COc1c(S(=O)(=O)CC)ccc(C(=O)C2=C(O)CCCC2=O)c1C(F)(F)F [Compound E3],90

# System: Stellaria media
# Assay: as above
# Assay type: in vivo
# Conditions: 504 h, dosage 80 g/ha, visual rating after about 3 weeks (Table D), read-out: Herbicidal action against STEME
# Description: as §2
row,Structure (SMILES),pest or weed control at 80 g/ha [%]
1,CCN(C)C(=O)COc1c(S(=O)(=O)CC)ccc(C(=O)C2=C(O)CCCC2=O)c1C(F)(F)F [Compound E6],100
2,CCN(CC)C(=O)COc1c(S(C)(=O)=O)ccc(C(=O)C2=C(O)CCCC2=O)c1C(F)(F)F [Compound E2],100
3,CCN(CC)C(=O)COc1c(S(=O)(=O)CC)ccc(C(=O)C2=C(O)CCCC2=O)c1C(F)(F)F [Compound E3],100
4,"CN(C)C(=O)COc1c(S(C)(=O)=O)ccc(C(=O)C2=C(O)CCCC2=O)c1Cl [Compound S4, reference compound]",90

# System: Veronica persica
# Assay: as above
# Assay type: in vivo
# Conditions: 504 h, dosage 80 g/ha, visual rating after about 3 weeks (Table D), read-out: Herbicidal action against VERPE
# Description: as §2
row,Structure (SMILES),pest or weed control at 80 g/ha [%]
1,CCN(C)C(=O)COc1c(S(=O)(=O)CC)ccc(C(=O)C2=C(O)CCCC2=O)c1C(F)(F)F [Compound E6],100
2,CCN(CC)C(=O)COc1c(S(C)(=O)=O)ccc(C(=O)C2=C(O)CCCC2=O)c1C(F)(F)F [Compound E2],100
3,CCN(CC)C(=O)COc1c(S(=O)(=O)CC)ccc(C(=O)C2=C(O)CCCC2=O)c1C(F)(F)F [Compound E3],100
4,"CN(C)C(=O)COc1c(S(C)(=O)=O)ccc(C(=O)C2=C(O)CCCC2=O)c1Cl [Compound S4, reference compound]",90
